Data set [1] in a line: Stability in artificial gastric secretion (HPLC). To be noted: 37° C. The method, then:
10 mg of amides of creatine was dissolved in 20 mL of artificial gastric secretion for study of amides of creatine stability, solution aliquot was place into vial for chromatograph. Vial with solution was place into chromatograph autosampler at 37° C. Initial concentration of amides of creatine and its relative change in gastric secretion were determined by HPLC at indicated temperature (Table 3).

The conditions of data set [2]: 37° C. The method, then:
Stability of amides of creatine in human plasma was assessed by relative change in concentration of amides of creatine in plasma. 1 mL of plasma was mixed with 0.2 mL of amides of creatine aqueous solution with concentration 5 mg/mL, a mixture was kept at a temperature of 37° C., aliquot of volume 0.2 mL was drawn in fixed time ranges, mixed with 0.02 mL of trifluoroacetic acid 10% solution, a precipitate was centrifuged at […] for 20 min. A concentration of amides of creatine in supernatant was determined by HPLC method (Table 4).

Data set [3] concerns rat model of focal ischemia. Conditions: 30 min ischemia, 48 hour reperfusion, male Wistar rat. The protocol:
Research of the neuroprotective action of amides of creatine was carried out in a rat model of focal ischemia (male, Wistar, 12÷14 weeks, 220÷240 g). Anesthesia was performed by sodium thiopental 60 mg/kg. A solution of amides of creatine in saline was administered intravenous to the first group of animals 45 min before ischemia, saline was administered to a control group, a solution of amides of creatine in saline was administered intragastric per os by an enteral tube a day before ischemia to the second group of animals 3 times per day, saline was administered to a control group.
Standard time of ischemia constituted 30 min, standard time of reperfusion constituted 48 hour. The animals were sacrificed, brain slices with thickness of 2 mm were produced for assessing a brain damage volume. The damage area was determined by staining with […] followed by data acquisition and analysis of stained slice digital images. A brain damage coefficient, i.e. a relation of damage area to the slice surface was calculated (Table 1).

Data set [4] relates to rat model of focal ischemia. Conditions: score 18 max, 3 min. The method, then: Cerebral ischemia was induced by the method mentioned above. A solution of amides of creatine or saline was administered intravenous. […] Testing the animals was carried out before ischemia, on a second and third days after ischemia-reperfusion at a fixed time for exclusion of behavioral changes by means of circadian rhythm. Spontaneous activity, symmetrical limb movement, climbing onto vertical reticulated wall, body proprioreception, touching to vibriss were assessed. A maximum point by assigned score was 18 (lack of neurological deficit), minimum—3 (severe neurological deficit).

The conditions of data set [5]: 20-30 g per day for a few days; cited from earlier work.
For data set [6] the following is noted: in vivo; cited from earlier work.
Setting [7] is: i./v., 150 mg/kg, 45 min before ischemia.
Setting [8] is: per os, 3 × 150 mg/kg, a day before ischemia.

Structures are written as SMILES. Read-outs that look alike come from different tables or passages of the source.

On to `CC(=O)O.CC(C)OC(=O)CNC(=O)CN(C)C(=N)N` [Agent 1, Creatinyl-Glycine iso-Propyl Ester Acetate], for which the “Stability in gastric secretion” value is reported as 100% in data set [1] (0 hour), 100% in data set [1] (1 hour), 99% in data set [1] (3 hours) and 97% in data set [1] (5 hours). Further, the “Stability in human plasma” value in data set [2] (0 hour) is 100%; in data set [2] (0.25 hour), 100%; in data set [2] (0.5 hours), 99%; in data set [2] (1 hour), 91%. Also, the Brain damage coefficient in data set [3] (setting [7]) was 11.2 ± 2.3%; in data set [3] (setting [8]) it was 14.2 ± 3.0%. For the same compound, the “Neurological condition by Garcia score, 2nd day after ischemia” value in data set [4] (150 mg/kg intravenous) was 10 ± 2. Moreover, the “Neurological condition by Garcia score, 3rd day after ischemia” value in data set [4] (150 mg/kg intravenous) was found to be 15 ± 2. Further, the “Neurological condition by Garcia score, 1 day before ischemia” value in data set [4] (150 mg/kg intravenous) stood at 18 ± 0.

`CC(=O)O.CCOC(=O)CNC(=O)CNC(=O)CN(C)C(=N)N` [Agent 2, Creatinyl-Glycyl-Glycine Ethyl Ester Acetate]: the “Stability in gastric secretion” value in data set [1] (0 hour) was 100%; in data set [1] (1 hour), 100%; in data set [1] (3 hours), 98%; in data set [1] (5 hours), 98%. The “Stability in human plasma” value in data set [2] (0 hour) was determined as 100%; in data set [2] (0.25 hour), 100%; in data set [2] (0.5 hours), 97%; in data set [2] (1 hour) it was 90%. In data set [3] (i./v., 200 mg/kg, 45 min before ischemia), this compound registered a Brain damage coefficient of 12.1 ± 2.0%.

Take `CCNC(=O)CNC(=O)CN(C)C(=N)N.O=C(O)C(O)C(O)C(=O)O` [Agent 3, Creatinyl-Glycine Ethylamide Tartrate]: the “Stability in gastric secretion” value worked out at 100% in data set [1] (0 hour), 100% in data set [1] (1 hour), 97% in data set [1] (3 hours) and 98% in data set [1] (5 hours). Moreover, the “Stability in human plasma” value in data set [2] (0 hour) is 100%; in data set [2] (0.25 hour) it was 100%; in data set [2] (0.5 hours), 95%; in data set [2] (1 hour), 90%. Besides, the Brain damage coefficient in data set [3] (setting [7]) is 12.0 ± 1.7%; in data set [3] (setting [8]), 13.9 ± 3.3%. In data set [4] (150 mg/kg intravenous), the “Neurological condition by Garcia score, 2nd day after ischemia” value is 11 ± 2. The “Neurological condition by Garcia score, 3rd day after ischemia” value in data set [4] (150 mg/kg intravenous) is on record as 16 ± 1. The “Neurological condition by Garcia score, 1 day before ischemia” value in data set [4] (150 mg/kg intravenous) turned out to be 18 ± 0.

`CC(=O)O.CC(=O)O.CCOC(=O)[C@@H](N)CCCCNC(=O)CN(C)C(=N)N` [Agent 4, N^ε-Creatinyl-Lysine Ethyl Ester Diacetate]: the “Stability in gastric secretion” value was 100% in data set [1] (0 hour), 100% in data set [1] (1 hour), 98% in data set [1] (3 hours) and 97% in data set [1] (5 hours). The “Stability in human plasma” value in data set [2] (0 hour) came to 100%; in data set [2] (0.25 hour), 100%; in data set [2] (0.5 hours) it was 100%; in data set [2] (1 hour) it was 89%. Besides, the Brain damage coefficient is reported as 13.3 ± 3.2% in data set [3] (i./v., 100 mg/kg, 45 min before ischemia) and 15.2 ± 2.9% in data set [3] (per os, 3 × 100 mg/kg, a day before ischemia). In data set [4] (100 mg/kg intravenous), the “Neurological condition by Garcia score, 2nd day after ischemia” value is recorded as 14 ± 1. The “Neurological condition by Garcia score, 3rd day after ischemia” value in data set [4] (100 mg/kg intravenous) turned out to be 17 ± 2. The “Neurological condition by Garcia score, 1 day before ischemia” value in data set [4] (100 mg/kg intravenous) amounted to 18 ± 0.

`CCNC(=O)C(Cc1ccccc1)NC(=O)CN(C)C(=N)N.Cl` (stereo not shown) [Agent 5, Creatinyl-Phenylalanine Ethylamide Hydrochloride]: the “Stability in gastric secretion” value in data set [1] (0 hour) turned out to be 100%; in data set [1] (1 hour), 100%; in data set [1] (3 hours), 98%; in data set [1] (5 hours) it was 99%. The “Stability in human plasma” value was determined as 100% in data set [2] (0 hour), 100% in data set [2] (0.25 hour), 97% in data set [2] (0.5 hours) and 87% in data set [2] (1 hour). For the same compound, the Brain damage coefficient in data set [3] (i./v., 50 mg/kg, 45 min before ischemia) is recorded as 14.0 ± 1.1%. Also, the “Neurological condition by Garcia score, 2nd day after ischemia” value in data set [4] (50 mg/kg intravenous) stood at 11 ± 1. Further, in data set [4] (50 mg/kg intravenous), the “Neurological condition by Garcia score, 3rd day after ischemia” value was found to be 14 ± 1. Moreover, in data set [4] (50 mg/kg intravenous), the “Neurological condition by Garcia score, 1 day before ischemia” value is listed as 18 ± 0.

On to `CC(=O)O.CCOC(=O)CCCNC(=O)CN(C)C(=N)N` [Agent 6, Creatinyl-γ-Aminobutyric acid Ethyl Ester acetate], for which the “Stability in gastric secretion” value in data set [1] (0 hour) is on record as 100%; in data set [1] (1 hour) it was 100%; in data set [1] (3 hours), 99%; in data set [1] (5 hours), 99%. In data set [3] (i./v., 45 mg/kg, 45 min before ischemia), this compound yielded a Brain damage coefficient of 13.1 ± 1.0%. Besides, in data set [4] (45 mg/kg intravenous), the “Neurological condition by Garcia score, 2nd day after ischemia” value worked out at 14 ± 0. In data set [4] (45 mg/kg intravenous), the “Neurological condition by Garcia score, 3rd day after ischemia” value is given as 16.0 ± 1.1. The “Neurological condition by Garcia score, 1 day before ischemia” value in data set [4] (45 mg/kg intravenous) was 18 ± 0.

In the case of `CN(CC(=O)O)C(=N)N.O` [creatine monohydrate], the “Increasing of total creatine content in human skeletal muscles” value in data set [5] is reported as “more than 20%”.

With `CN(CC(=O)O)C(=N)N` [creatine, Creatine], the “Extent of absorbtion from gastro-intestinal tract” value in data set [6] is on record as 1 to 14%.

Source of the values: patent US8735623B2, “Process for preparing creatine amides” (priority 2009, dated 2014).
